Measurements published in ChEMBL document CHEMBL2390902, “Discovery of 1-(1,3,5-triazin-2-yl)piperidine-4-carboxamides as inhibitors of soluble epoxide hydrolase” (Bioorg Med Chem Lett, 2013).

Legend:
Rattus norvegicus [1] = assay: Dose normalized AUC in rat at 2 mg/kg, iv; assay type: ADME, organism-based; set-up: dose 2 mg/kg, route intravenous; conditions: in vivo
[2] = target: Substance-K receptor (Homo sapiens) (UniProt P21452); assay: Inhibition of human NK2 receptor at 1 uM relative to control
Sequence of Substance-K receptor (Homo sapiens) (P21452 whole entry): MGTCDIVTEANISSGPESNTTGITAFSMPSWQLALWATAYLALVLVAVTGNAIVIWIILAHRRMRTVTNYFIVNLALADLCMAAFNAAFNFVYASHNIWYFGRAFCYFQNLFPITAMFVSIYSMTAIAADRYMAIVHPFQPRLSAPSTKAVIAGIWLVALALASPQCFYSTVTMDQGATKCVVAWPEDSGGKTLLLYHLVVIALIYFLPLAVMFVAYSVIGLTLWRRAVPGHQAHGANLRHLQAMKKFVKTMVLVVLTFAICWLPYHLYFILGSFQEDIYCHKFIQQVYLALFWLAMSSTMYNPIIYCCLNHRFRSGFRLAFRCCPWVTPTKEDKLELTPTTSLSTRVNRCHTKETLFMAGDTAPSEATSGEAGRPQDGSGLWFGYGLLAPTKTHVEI

[3] = target: Adenosine receptor A3 (Homo sapiens) (UniProt P0DMS8); assay: Inhibition of human adenosine A3 receptor at 1 uM relative to control
[4] = target: Muscarinic acetylcholine receptor M3 (Homo sapiens) (UniProt P20309); assay: Inhibition of human M3 receptor at 1 uM relative to control
[5] = target: T1, Bifunctional epoxide hydrolase 2 (Homo sapiens, UniProt P34913)
T1 sequence (P34913 whole entry): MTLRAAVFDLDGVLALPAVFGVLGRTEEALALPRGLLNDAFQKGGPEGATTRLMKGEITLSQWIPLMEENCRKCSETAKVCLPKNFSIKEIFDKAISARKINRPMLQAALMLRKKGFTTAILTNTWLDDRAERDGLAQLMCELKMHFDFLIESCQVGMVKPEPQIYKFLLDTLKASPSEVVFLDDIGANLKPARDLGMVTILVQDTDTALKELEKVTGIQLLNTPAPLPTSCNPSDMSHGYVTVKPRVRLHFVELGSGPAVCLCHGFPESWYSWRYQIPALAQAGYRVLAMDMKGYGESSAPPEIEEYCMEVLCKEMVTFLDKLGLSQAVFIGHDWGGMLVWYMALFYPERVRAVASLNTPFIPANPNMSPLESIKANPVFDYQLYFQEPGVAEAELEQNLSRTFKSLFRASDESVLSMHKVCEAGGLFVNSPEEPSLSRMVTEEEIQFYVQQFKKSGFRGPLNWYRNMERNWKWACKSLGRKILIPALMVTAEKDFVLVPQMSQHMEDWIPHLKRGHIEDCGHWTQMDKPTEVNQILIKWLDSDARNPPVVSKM
Description: Inhibition of human soluble epoxide hydrolase using PHOME as substrate assessed as formation of 6-methoxy-2-naphthaldehyde incubated for 10 mins prior to substrate addition measured with in 30 mins by fluorescence assay

Epoxide hydrolase 1 = Epoxide hydrolase 1 (Homo sapiens, UniProt P07099)
[6] = target: Voltage-dependent L-type calcium channel subunit alpha-1C (Homo sapiens, UniProt Q13936); assay: Inhibition of CaV1.2 (unknown origin)
Sequence of Voltage-dependent L-type calcium channel subunit alpha-1C (Q13936 whole entry): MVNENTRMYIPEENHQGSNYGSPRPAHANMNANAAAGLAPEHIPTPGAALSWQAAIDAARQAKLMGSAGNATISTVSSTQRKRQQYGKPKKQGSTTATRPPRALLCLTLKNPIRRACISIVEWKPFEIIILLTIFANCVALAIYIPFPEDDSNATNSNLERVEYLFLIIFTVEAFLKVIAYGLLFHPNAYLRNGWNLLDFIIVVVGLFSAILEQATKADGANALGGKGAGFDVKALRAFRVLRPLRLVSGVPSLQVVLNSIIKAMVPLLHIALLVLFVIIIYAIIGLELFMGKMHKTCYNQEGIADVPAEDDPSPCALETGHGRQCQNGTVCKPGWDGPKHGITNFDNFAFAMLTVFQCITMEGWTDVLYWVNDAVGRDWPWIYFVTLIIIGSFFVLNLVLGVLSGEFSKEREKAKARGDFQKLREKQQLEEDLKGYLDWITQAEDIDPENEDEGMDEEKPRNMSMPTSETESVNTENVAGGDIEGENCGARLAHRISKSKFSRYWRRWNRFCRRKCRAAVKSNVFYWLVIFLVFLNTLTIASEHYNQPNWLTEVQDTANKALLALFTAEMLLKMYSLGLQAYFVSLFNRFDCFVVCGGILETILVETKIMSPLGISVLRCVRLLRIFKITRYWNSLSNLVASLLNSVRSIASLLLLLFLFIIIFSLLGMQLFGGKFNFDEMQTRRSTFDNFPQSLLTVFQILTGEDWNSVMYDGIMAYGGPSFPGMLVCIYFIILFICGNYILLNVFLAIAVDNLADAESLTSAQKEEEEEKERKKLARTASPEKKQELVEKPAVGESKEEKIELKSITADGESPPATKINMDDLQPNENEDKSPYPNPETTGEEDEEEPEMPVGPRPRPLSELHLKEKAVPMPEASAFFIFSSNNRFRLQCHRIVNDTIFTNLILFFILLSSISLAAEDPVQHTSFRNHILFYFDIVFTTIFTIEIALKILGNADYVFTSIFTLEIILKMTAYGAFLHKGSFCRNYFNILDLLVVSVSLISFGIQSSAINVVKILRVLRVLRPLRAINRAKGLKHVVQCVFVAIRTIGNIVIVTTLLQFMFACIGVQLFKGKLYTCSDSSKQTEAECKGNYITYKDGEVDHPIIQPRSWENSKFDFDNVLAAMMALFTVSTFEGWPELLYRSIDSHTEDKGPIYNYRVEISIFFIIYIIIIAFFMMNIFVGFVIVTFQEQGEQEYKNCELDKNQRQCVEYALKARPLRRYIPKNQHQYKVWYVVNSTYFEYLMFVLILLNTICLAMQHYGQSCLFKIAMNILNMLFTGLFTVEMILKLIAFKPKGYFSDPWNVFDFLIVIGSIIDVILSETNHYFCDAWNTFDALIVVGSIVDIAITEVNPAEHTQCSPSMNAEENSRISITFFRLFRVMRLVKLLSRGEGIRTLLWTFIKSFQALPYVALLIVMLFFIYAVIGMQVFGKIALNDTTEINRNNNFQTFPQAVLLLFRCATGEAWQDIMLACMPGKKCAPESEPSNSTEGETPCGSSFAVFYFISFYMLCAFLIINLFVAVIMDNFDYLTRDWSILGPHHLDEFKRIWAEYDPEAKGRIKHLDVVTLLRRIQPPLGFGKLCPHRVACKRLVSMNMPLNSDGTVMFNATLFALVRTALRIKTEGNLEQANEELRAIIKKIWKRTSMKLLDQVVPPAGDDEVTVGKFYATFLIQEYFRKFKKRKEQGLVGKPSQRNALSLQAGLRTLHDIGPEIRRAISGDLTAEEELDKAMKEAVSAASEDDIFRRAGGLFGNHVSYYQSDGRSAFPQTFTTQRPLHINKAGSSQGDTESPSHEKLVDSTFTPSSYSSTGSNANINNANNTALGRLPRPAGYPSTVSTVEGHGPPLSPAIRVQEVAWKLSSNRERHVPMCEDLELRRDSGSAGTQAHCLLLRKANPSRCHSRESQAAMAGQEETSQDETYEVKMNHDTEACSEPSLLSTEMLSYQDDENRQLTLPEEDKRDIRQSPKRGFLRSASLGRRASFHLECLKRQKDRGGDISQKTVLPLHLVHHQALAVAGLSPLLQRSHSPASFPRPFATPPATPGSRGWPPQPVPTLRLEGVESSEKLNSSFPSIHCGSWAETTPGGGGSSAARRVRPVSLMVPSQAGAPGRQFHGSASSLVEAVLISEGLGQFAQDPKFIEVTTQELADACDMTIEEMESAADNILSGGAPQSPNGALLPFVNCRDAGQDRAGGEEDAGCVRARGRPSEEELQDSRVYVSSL

Homo sapiens [7] = species on record: Homo sapiens; assay: Inhibition of human SKCa channel at 1 uM relative to control
[8] = Half life in rat at 2 mg/kg, iv; assay type: ADME, organism-based; set-up: dose 2 mg/kg, route intravenous; conditions: in vivo
[9] = target: Adrenergic receptor alpha-1 (Homo sapiens) (UniProt P35348+P25100+P35368); assay: Inhibition of human alpha1 receptor at 1 uM relative to control
[10] = target: 5-hydroxytryptamine receptor 7 (Homo sapiens) (UniProt P34969); assay: Inhibition of human 5-HT7 receptor at 1 uM relative to control
[11] = target: Neuropeptide Y receptor type 1 (Homo sapiens) (UniProt P25929); assay: Inhibition of human Y1 receptor at 1 uM relative to control
Sequence of Neuropeptide Y receptor type 1 (Homo sapiens) (P25929 whole entry): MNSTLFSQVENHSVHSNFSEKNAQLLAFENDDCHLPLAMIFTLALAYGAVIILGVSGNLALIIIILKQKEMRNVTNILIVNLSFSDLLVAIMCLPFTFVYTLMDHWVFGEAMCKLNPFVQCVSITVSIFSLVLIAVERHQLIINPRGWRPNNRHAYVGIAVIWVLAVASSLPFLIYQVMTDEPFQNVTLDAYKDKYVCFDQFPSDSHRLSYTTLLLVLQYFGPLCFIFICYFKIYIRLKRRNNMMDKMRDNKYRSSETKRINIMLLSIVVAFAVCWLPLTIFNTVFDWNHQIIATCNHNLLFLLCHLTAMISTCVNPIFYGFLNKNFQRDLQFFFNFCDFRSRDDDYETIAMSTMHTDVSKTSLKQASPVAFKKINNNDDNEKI

[12] = target: Adenosine receptor A2a (Homo sapiens) (UniProt P29274); assay: Inhibition of human adenosine A2A receptor at 1 uM relative to control
Sequence of Adenosine receptor A2a (Homo sapiens) (P29274 whole entry): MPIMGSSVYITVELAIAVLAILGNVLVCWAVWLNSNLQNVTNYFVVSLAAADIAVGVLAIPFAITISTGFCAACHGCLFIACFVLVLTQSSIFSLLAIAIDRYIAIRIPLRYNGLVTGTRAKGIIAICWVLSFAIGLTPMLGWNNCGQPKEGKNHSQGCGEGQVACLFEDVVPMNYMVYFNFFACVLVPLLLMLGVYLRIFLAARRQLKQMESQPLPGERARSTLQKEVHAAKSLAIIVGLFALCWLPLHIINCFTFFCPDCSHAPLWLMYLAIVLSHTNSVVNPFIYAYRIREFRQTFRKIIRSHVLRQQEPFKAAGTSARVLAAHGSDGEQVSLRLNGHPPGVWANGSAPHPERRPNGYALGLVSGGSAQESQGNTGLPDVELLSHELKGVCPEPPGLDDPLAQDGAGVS

[13] = target: Type-1 angiotensin II receptor (Homo sapiens) (UniProt P30556); assay: Inhibition of human AT1 receptor at 1 uM relative to control
[14] = target: Galanin receptor type 2 (Homo sapiens) (UniProt O43603); assay: Inhibition of human GAL2 receptor at 1 uM relative to control
Sequence of Galanin receptor type 2 (Homo sapiens) (O43603 whole entry): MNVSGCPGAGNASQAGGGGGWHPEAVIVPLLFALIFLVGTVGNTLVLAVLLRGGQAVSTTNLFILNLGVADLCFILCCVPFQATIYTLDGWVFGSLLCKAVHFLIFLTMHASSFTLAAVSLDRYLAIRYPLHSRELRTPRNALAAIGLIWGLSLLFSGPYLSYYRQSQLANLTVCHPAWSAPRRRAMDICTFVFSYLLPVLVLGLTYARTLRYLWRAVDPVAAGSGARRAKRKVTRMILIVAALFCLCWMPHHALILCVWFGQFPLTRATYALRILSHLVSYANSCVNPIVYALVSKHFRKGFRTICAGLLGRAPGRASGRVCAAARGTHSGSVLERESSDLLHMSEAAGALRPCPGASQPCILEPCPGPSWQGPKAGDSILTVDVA

[15] = Cmax in rat at 0.2 mg/kg, po; assay type: ADME, organism-based; set-up: dose 0.2 mg/kg, route oral; conditions: in vivo
Rattus norvegicus [16] = assay: In vivo inhibition of soluble epoxide hydrolase in rat assessed as increase in leukotoxin/leukotoxin diol ratio in plasma at 0.2 to 20 mg/kg, po measured after 4 hrs relative to vehicle-treated control; assay type: functional; conditions: dose mg/kg 0.2-20
[17] = target: Endothelin-1 receptor (Homo sapiens) (UniProt P25101); assay: Inhibition of human ETA receptor at 1 uM relative to control
[18] = Plasma clearance in rat at 1 mg/kg, iv; assay type: ADME, organism-based; set-up: dose 1 mg/kg, route intravenous
[19] = Cmax in rat at 20 mg/kg, po; assay type: ADME, organism-based; set-up: dose 20 mg/kg, route oral; conditions: in vivo
[20] = target: 5-hydroxytryptamine receptor 2A (Homo sapiens) (UniProt P28223); assay: Inhibition of human 5-HT2A receptor at 1 uM relative to control
[21] = target: Neuromedin-K receptor (Homo sapiens) (UniProt P29371); assay: Inhibition of human NK3 receptor at 1 uM relative to control
[22] = target: C-X-C chemokine receptor type 2 (Homo sapiens) (UniProt P25025); assay: Inhibition of human CXCR2 receptor at 1 uM relative to control
Sequence of C-X-C chemokine receptor type 2 (Homo sapiens) (P25025 whole entry): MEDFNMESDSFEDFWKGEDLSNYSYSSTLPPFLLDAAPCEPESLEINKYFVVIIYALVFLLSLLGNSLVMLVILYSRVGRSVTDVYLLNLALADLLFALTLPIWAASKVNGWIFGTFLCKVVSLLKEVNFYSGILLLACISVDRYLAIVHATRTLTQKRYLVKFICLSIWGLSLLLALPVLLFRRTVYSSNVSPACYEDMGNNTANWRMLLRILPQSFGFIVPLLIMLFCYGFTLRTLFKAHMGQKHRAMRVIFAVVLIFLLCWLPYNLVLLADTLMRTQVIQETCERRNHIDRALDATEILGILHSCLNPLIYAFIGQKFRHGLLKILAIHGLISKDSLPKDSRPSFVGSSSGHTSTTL

[23] = target: 5-hydroxytryptamine receptor 1B (Homo sapiens) (UniProt P28222); assay: Inhibition of human 5-HT1B receptor at 1 uM relative to control
[24] = target: Muscarinic acetylcholine receptor M4 (Homo sapiens) (UniProt P08173); assay: Inhibition of human M4 receptor at 1 uM relative to control
Rattus norvegicus [25] = assay: Free maximum concentration of drug in rat at 20 mg/kg, po; assay type: ADME, organism-based; set-up: dose 20 mg/kg, route oral; conditions: in vivo
Rattus norvegicus [26] = assay: Free maximum concentration of drug in rat at 0.2 mg/kg, po; assay type: ADME, organism-based; set-up: dose 0.2 mg/kg, route oral; conditions: in vivo
[27] = target: Beta-2 adrenergic receptor (Homo sapiens) (UniProt P07550); assay: Inhibition of human beta2 receptor at 1 uM relative to control
[28] = target: Vasopressin V1a receptor (Homo sapiens) (UniProt P37288); assay: Inhibition of human vasopressin V1a receptor at 1 uM relative to control
[29] = target: D(1A) dopamine receptor (Homo sapiens) (UniProt P21728); assay: Inhibition of human dopamine D1 receptor at 1 uM relative to control
[30] = target: 5-hydroxytryptamine receptor 6 (Homo sapiens) (UniProt P50406); assay: Inhibition of human 5-HT6 receptor at 1 uM relative to control
Homo sapiens [31] = species on record: Homo sapiens; assay: Inhibition of human GABA receptor at 1 uM relative to control
Homo sapiens [32] = species on record: Homo sapiens; assay: Inhibition of human BZD receptor at 1 uM relative to control
[33] = target: Adrenergic receptor alpha-2 (Homo sapiens) (UniProt P08913+P18825+P18089); assay: Inhibition of human alpha2 receptor at 1 uM relative to control
[34] = target: D(2) dopamine receptor (Homo sapiens) (UniProt P14416); assay: Inhibition of human dopamine D2S receptor at 1 uM relative to control
Sequence of D(2) dopamine receptor (Homo sapiens) (P14416 whole entry): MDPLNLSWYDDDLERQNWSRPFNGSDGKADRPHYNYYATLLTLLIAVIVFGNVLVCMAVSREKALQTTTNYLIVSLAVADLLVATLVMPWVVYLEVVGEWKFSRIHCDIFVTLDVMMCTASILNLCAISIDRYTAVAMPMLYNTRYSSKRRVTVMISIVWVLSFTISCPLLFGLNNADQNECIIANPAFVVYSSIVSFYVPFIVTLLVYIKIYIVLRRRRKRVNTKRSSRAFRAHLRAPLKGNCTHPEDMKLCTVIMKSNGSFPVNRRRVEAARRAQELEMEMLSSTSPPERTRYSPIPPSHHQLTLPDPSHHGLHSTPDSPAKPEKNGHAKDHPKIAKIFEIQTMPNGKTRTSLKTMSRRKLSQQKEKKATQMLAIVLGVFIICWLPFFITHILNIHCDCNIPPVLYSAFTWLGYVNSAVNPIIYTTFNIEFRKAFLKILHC

[35] = target: Melanocortin receptor 4 (Homo sapiens) (UniProt P32245); assay: Inhibition of human MC4 receptor at 1 uM relative to control
Sequence of Melanocortin receptor 4 (Homo sapiens) (P32245 whole entry): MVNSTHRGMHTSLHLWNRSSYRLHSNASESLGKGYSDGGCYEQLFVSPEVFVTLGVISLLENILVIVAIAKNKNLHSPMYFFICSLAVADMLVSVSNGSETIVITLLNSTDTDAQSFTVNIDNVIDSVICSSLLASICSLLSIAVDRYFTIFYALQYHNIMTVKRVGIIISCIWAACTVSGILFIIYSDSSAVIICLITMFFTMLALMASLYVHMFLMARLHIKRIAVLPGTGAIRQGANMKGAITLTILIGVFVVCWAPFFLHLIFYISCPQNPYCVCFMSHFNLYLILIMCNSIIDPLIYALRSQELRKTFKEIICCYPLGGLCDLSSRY

[36] = target: Bifunctional epoxide hydrolase 2 (Rattus norvegicus, UniProt P80299)
[37] = Volume of distribution at steady state in rat at 2 mg/kg, iv; assay type: ADME, organism-based; set-up: dose 2 mg/kg, route intravenous; conditions: in vivo, read-out: Vdss
[38] = target: Melatonin receptor type 1A (Homo sapiens) (UniProt P48039); assay: Inhibition of human MT1 receptor at 1 uM relative to control
[39] = target: Sodium channel protein type 5 subunit alpha (Homo sapiens, UniProt Q14524); assay: Inhibition of NaV1.5 (unknown origin)
[40] = target: Cholecystokinin receptor type A (Homo sapiens) (UniProt P32238); assay: Inhibition of human CCK1 receptor at 1 uM relative to control

Compound `CNc1nc(C)nc(N2CCC(C(=O)NCc3ccc(Br)cc3OC(F)(F)F)CC2)n1` has an AUC/dose (Rattus norvegicus [1]) of 1.3 kg·h/L, an inhibition [2] of less than 50% and an inhibition [3] of less than 50%. The inhibition [4] was less than 50%, the IC50 [5] was 0.5 nM and the IC50 (Epoxide hydrolase 1) was greater than 50000 nM. The IC50 [6] was greater than 10000 nM, the inhibition (Homo sapiens [7]) was less than 50% and the half-life [8] was 4.6 h. The inhibition [9] was less than 50%, the inhibition [10] was less than 50% and the inhibition [11] was less than 50%. It also gave an inhibition [12] of less than 50%, an inhibition [13] of less than 50% and an inhibition [14] of less than 50%. For the same compound, the Cmax [15] was 16 nM, the “inhibition (INH)” value (Rattus norvegicus [16]) was 50% and the inhibition [17] was less than 50%. For the same compound, the clearance [18] was 12 mL/min/kg, the Cmax [19] was 1490 nM and the inhibition [20] was less than 50%. For the same compound, the inhibition [21] was less than 50%, the inhibition [22] was less than 50% and the inhibition [23] was less than 50%. For the same compound, the inhibition [24] was less than 50%, the fCmax (Rattus norvegicus [25]) was 24 nM and the fCmax (Rattus norvegicus [26]) was 0.25 nM. The inhibition [27] was less than 50%, the inhibition [28] was less than 50% and the inhibition [29] was less than 50%. For the same compound, the inhibition [30] was less than 50%, the inhibition (Homo sapiens [31]) was less than 50% and the inhibition (Homo sapiens [32]) was less than 50%. It also gave an inhibition [33] of less than 50%, an inhibition [34] of less than 50% and an inhibition [35] of less than 50%. The IC50 [36] was 2 nM, the Vd [37] was 2.1 L/kg and the inhibition [38] was less than 50%. It also gave an IC50 [39] greater than 10000 nM and an inhibition [40] of less than 50%.
